This passage reports IC50 results from US11021445B2, “Carboxylic acid derivative as AT2R receptor antagonist” (SHANDONG DANHONG PHARMACEUTICAL CO., LTD., priority 2017, dated 2021).

The assay concerns the target T1, hAT2 (Homo sapiens, UniProt P50052).
T1 construct: expressed in transfected cells; host or cells: HEK-293
T1 sequence (P50052 1-363): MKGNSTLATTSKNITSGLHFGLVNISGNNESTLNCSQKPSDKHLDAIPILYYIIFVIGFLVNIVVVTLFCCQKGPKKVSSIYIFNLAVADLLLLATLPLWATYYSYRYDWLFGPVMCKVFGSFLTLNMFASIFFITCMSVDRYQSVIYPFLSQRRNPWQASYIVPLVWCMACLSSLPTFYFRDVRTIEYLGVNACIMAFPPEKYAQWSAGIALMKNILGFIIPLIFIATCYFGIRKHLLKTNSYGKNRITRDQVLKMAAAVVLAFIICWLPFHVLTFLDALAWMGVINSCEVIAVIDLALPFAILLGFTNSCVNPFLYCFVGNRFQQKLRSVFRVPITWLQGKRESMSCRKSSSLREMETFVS
The assay can be described thus: hAT2 receptor binding assay (SPA, [125I]-Sar1-Ile8-Angiotensin II). The conditions noted are these: membrane of HEK-293 cells overexpressing hAT2; 0.1 nM 125I ligand. The protocol: hAT2 Receptor Binding Assay
Protease inhibitor mixture, free of ethylenediaminetetraacetic acid-1 tablets (Roche #11873580001) (50 mL plus one piece)
Experimental Methods and Steps
The reference ligand PD123319 and the test compound were prepared into a 750 μM mother liquor by DMSO; each compound was prepared into a solution of 8 concentration gradients (up to a concentration of 750 μM, 3-fold dilution) and 10 μl of the solution was added to a master of a 384-well plate per well.
The SPA beads were prepared to a mother liquor of 25 mg/ml by the buffer;
The isotope [^125I]-Sar1-Ile8-Angiotensin II was prepared into a mother liquor of 50 μCi/ml by adding pure water.
The cell membrane overexpressing hAT2 in HEK-293 cells was prepared to 2.5 mg/ml by the buffer.
200 nl of compound was aspirated from the mother plate with ECHO to each well of the 384-well test plate. ZPE was added to an equal volume of DMSO. (The concentration of the test compound in the reaction was diluted by 250 times).
A 50 ml membrane solution containing 10 μg/μl of magnetic beads and 0.05 μg/μl of AT2 was prepared, placed on a shaker and uniformly mixed. (100 rpm, 30 min). The test plate finally contained an hAT2 membrane with 1.25 μg/well and magnetic beads with 250 μg/well.
A 3.2 ml membrane liquid mixture was added to the compound test plate by using a Multidrop Combi pipette, and 25 μl was added to each well.
A 0.2 nM solution was prepared with 50 μCi/ml of isotope [^125I]-Sar1-Ile8-Angiotensin II mother liquor by the buffer, and 0.2 nM of ^125I was added to the compound test plate with a Multidrop Combi pipette. A volume of 25 μl was added to each well. The final concentration of ^125I isotope is 0.1 nM.
The prepared test plate was placed on a shaker overnight at room temperature at 200 rpm.
The test plate was centrifuged with a centrifuge at 1200 rpm for 1 min.
The centrifuged test plate was read with Microbeta.
The molecule `COc1ccc2c(c1OCc1ccccc1)CC(C(=O)O)N(C(=O)C(OC1CCOCC1)c1ccccc1)C2` (single isomer, unassigned) [Compound 1] yielded a half-maximal inhibitory concentration (IC50) of 66.4 nM.

`COc1ccc2c(c1OCc1ccccc1)CC(C(=O)O)N(C(=O)C(OC1CCOCC1)c1ccccc1)C2` (single isomer, unassigned) [Compound 2] returned an IC50 of 850 nM.

Molecule `COc1ccc2c(c1OCc1ccccc1)C[C@@H](C(=O)O)N(C(=O)[C@@H](O[C@@H]1CCOC1)c1ccccc1)C2` (single isomer, unassigned) [Compound 9] came in with an IC50 of 47.6 nM.

`COc1ccc2c(c1OCc1ccccc1)C[C@@H](C(=O)O)N(C(=O)[C@H](O[C@@H]1CCOC1)c1ccccc1)C2` (single isomer, unassigned) [Compound 10]: the IC50 amounted to 60.7 nM.

As to `COc1ccc2c(c1OCc1ccccc1)C[C@@H](C(=O)O)N(C(=O)[C@@H](O[C@H]1CCOC1)c1ccccc1)C2` (single isomer, unassigned) [Compound 11], the 50% inhibitory concentration (IC50) is greater than 3000 nM.

As for `COc1ccc2c(c1OCc1ccccc1)C[C@@H](C(=O)O)N(C(=O)[C@H](OC1CCOC1)c1ccccc1)C2` (single isomer, unassigned) [Compound 12], the IC50 is greater than 3000 nM.

As to `COc1ccc2c(c1OCc1ccccc1)C[C@@H](C(=O)O)N(C(=O)[C@@H](OC1CCC3CC31)c1ccccc1)C2` (single isomer, unassigned) [Compound 59], the half-maximal inhibitory concentration (IC50) worked out at 22.7 nM.

`COc1ccc2c(c1OCc1ccccc1)C[C@@H](C(=O)O)N(C(=O)[C@@H](OC1CCC3CC31)c1ccccc1)C2` (single isomer, unassigned) [Compound 60] showed an IC50 of 2.5 nM.

The molecule `COc1ccc2c(c1OCc1ccccc1)C[C@@H](C(=O)O)N(C(=O)[C@H](OC1CCC3CC31)c1ccccc1)C2` (single isomer, unassigned) [Compound 61] came in with an IC50 of 72.7 nM.

Take `COc1ccc2c(c1OCc1ccccc1)C[C@@H](C(=O)O)N(C(=O)[C@H](OC1CCC3CC31)c1ccccc1)C2` (single isomer, unassigned) [Compound 62]: the IC50 stood at 270 nM.

`COCCO[C@H](C(=O)N1Cc2ccc(OC)c(OCc3ccccc3)c2C[C@H]1C(=O)O)c1ccccc1` [Compound 3] registered an IC50 of 197 nM.

`COCCO[C@@H](C(=O)N1Cc2ccc(OC)c(OCc3ccccc3)c2C[C@H]1C(=O)O)c1ccccc1` [Compound 4] yielded a half-maximal inhibitory concentration (IC50) of 836 nM.

For `CCCCO[C@H](C(=O)N1Cc2ccc(OC)c(OCc3ccccc3)c2C[C@H]1C(=O)O)c1ccccc1` [Compound 5], the concentration for half-maximal inhibition (IC50) was determined as 17.7 nM.

The molecule `CCCCO[C@@H](C(=O)N1Cc2ccc(OC)c(OCc3ccccc3)c2C[C@H]1C(=O)O)c1ccccc1` [Compound 6] displayed a concentration for half-maximal inhibition (IC50) of 383 nM.

As for `COc1ccc2c(c1OCc1ccccc1)C[C@@H](C(=O)O)N(C(=O)[C@@H](OCC(F)(F)F)c1ccccc1)C2` [Compound 7], the IC50 was 35.2 nM.

With `COc1ccc2c(c1OCc1ccccc1)C[C@@H](C(=O)O)N(C(=O)[C@H](OCC(F)(F)F)c1ccccc1)C2` [Compound 8], the IC50 is 513 nM.

For `COc1ccc2c(c1OCc1ccccc1)C[C@@H](C(=O)O)N(C(=O)[C@@H](OC1COC1)c1ccccc1)C2` [Compound 13], the half-inhibitory concentration (IC50) amounted to 154 nM.

On to `COc1ccc2c(c1OCc1ccccc1)C[C@@H](C(=O)O)N(C(=O)[C@H](OC1COC1)c1ccccc1)C2` [Compound 14], for which the half-maximal inhibitory concentration (IC50) is greater than 3000 nM.

The molecule `COc1ccc2c(c1OCc1ccccc1)C[C@@H](C(=O)O)N(C(=O)[C@@H](Oc1c(F)cc(F)cc1F)c1ccccc1)C2` [Compound 15] came in with an IC50 of 96.4 nM.

In turn, `COc1ccc2c(c1OCc1ccccc1)C[C@@H](C(=O)O)N(C(=O)[C@H](Oc1c(F)cc(F)cc1F)c1ccccc1)C2` [Compound 16] displayed an IC50 of 16.5 nM.

On to `COc1ccc2c(c1OCc1ccccc1)C[C@@H](C(=O)O)N(C(=O)[C@@H](Oc1ccccc1F)c1ccccc1)C2` [Compound 17], for which the IC50 was found to be 143 nM.

In the case of `COc1ccc2c(c1OCc1ccccc1)C[C@@H](C(=O)O)N(C(=O)[C@H](Oc1ccccc1F)c1ccccc1)C2` [Compound 18], the IC50 came out at 54.1 nM.

In turn, `COc1ccc2c(c1OCc1ccccc1)C[C@@H](C(=O)O)N(C(=O)[C@@H](Oc1ccccc1)c1ccccc1)C2` [Compound 19] came in with an IC50 of 250 nM.

In turn, `COc1ccc2c(c1OCc1ccccc1)C[C@@H](C(=O)O)N(C(=O)[C@H](Oc1ccccc1)c1ccccc1)C2` [Compound 20] registered an IC50 of 176 nM.

In turn, `COc1ccc2c(c1OCc1ccccc1)C[C@@H](C(=O)O)N(C(=O)[C@@H](Oc1ccccn1)c1ccccc1)C2` [Compound 21] had an IC50 of 195 nM.

Molecule `COc1ccc2c(c1OCc1ccccc1)C[C@@H](C(=O)O)N(C(=O)[C@H](Oc1ccccn1)c1ccccc1)C2` [Compound 22] registered a half-inhibitory concentration (IC50) of 1340 nM.

The molecule `COc1ccc(O[C@H](C(=O)N2Cc3ccc(OC)c(OCc4ccccc4)c3C[C@H]2C(=O)O)c2ccccc2)cc1` [Compound 23] gave a concentration for half-maximal inhibition (IC50) greater than 3000 nM.

For `COc1ccc(O[C@@H](C(=O)N2Cc3ccc(OC)c(OCc4ccccc4)c3C[C@H]2C(=O)O)c2ccccc2)cc1` [Compound 24], the 50% inhibitory concentration (IC50) is 192 nM.

As for `COc1ccc2c(c1OCc1ccccc1)C[C@@H](C(=O)O)N(C(=O)[C@@H](Oc1cccs1)c1ccccc1)C2` [Compound 25], the IC50 worked out at 72.1 nM.

As to `COc1ccc2c(c1OCc1ccccc1)C[C@@H](C(=O)O)N(C(=O)[C@H](Oc1cccs1)c1ccccc1)C2` [Compound 26], the half-inhibitory concentration (IC50) came out at 95.1 nM.

With `COc1ccc2c(c1OCc1ccccc1)C[C@@H](C(=O)O)N(C(=O)[C@@H](Oc1ccc(F)cc1F)c1ccccc1)C2` [Compound 27], the IC50 was found to be 245 nM.

Turning to `COc1ccc2c(c1OCc1ccccc1)C[C@@H](C(=O)O)N(C(=O)[C@H](Oc1ccc(F)cc1F)c1ccccc1)C2` [Compound 28], the IC50 was determined as 29.8 nM.

Consider `COc1ccc2c(c1OCc1ccccc1)C[C@@H](C(=O)O)N(C(=O)[C@@H](Oc1ccc(C#N)cc1)c1ccccc1)C2` [Compound 29], for which the 50% inhibitory concentration (IC50) is 231 nM.

In the case of `COc1ccc2c(c1OCc1ccccc1)C[C@@H](C(=O)O)N(C(=O)[C@H](Oc1ccc(C#N)cc1)c1ccccc1)C2` [Compound 30], the 50% inhibitory concentration (IC50) came to 373 nM.

On to `COc1ccc2c(c1OCc1ccccc1)C[C@@H](C(=O)O)N(C(=O)[C@@H](Oc1ccc(F)cc1)c1ccccc1)C2` [Compound 31], for which the IC50 turned out to be 59.6 nM.

Molecule `COc1ccc2c(c1OCc1ccccc1)C[C@@H](C(=O)O)N(C(=O)[C@H](Oc1ccc(F)cc1)c1ccccc1)C2` [Compound 32] returned a half-inhibitory concentration (IC50) of 78.3 nM.

Turning to `COc1ccc2c(c1OCc1ccccc1)C[C@@H](C(=O)O)N(C(=O)[C@@H](Oc1ccc(Cl)cc1)c1ccccc1)C2` [Compound 33], the IC50 stood at 648 nM.

On to `COc1ccc2c(c1OCc1ccccc1)C[C@@H](C(=O)O)N(C(=O)[C@H](Oc1ccc(Cl)cc1)c1ccccc1)C2` [Compound 34], for which the IC50 was 227 nM.

`COc1ccc2c(c1OCc1ccccc1)C[C@@H](C(=O)O)N(C(=O)[C@@H](Oc1ccc3ccccc3c1)c1ccccc1)C2` [Compound 35] displayed a concentration for half-maximal inhibition (IC50) of 1240 nM.

In turn, `COc1ccc2c(c1OCc1ccccc1)C[C@@H](C(=O)O)N(C(=O)[C@H](Oc1ccc3ccccc3c1)c1ccccc1)C2` [Compound 36] returned an IC50 of 97.1 nM.

In turn, `COc1ccc2c(c1OCc1ccccc1)C[C@@H](C(=O)O)N(C(=O)[C@H](OC1CCCC1)c1ccccc1)C2` [Compound 38] returned a half-inhibitory concentration (IC50) of 691 nM.
